Key:
[1] = test system: humanized embryonic nephrocyte (HEK293 cell); assay: Cytotoxicity, MTS method, HEK293 cell; format: cell-based; settings: Homo sapiens, HEK293, MTS method; read-out: IC50(mM) HEK293 cell
Source text: (§1) The toxicity of compounds is detected with MTS method in the immortalized mice bone marrowmacrophages (IBMM), mice embryonic fibroblast (NIH3t3) and humanized embryonic nephrocyte.

[2] = Release experiment of target compound in human plasma; settings: 37° C., 5 min to 9 h
Procedure: Mobile phase: gradient elution; A: water; B: methanol;
Chromatographic column: CAPCEL PAK MF PH-1;
Detecting instrument: TQ-S; ion source: APCI; ion detection mode: MRM;
Dissolving the target compound with DMSO, then diluting to 5 μg/mL with the normal saline of 0.9%. The human blank plasma after subpackage is preserved at −70° C., unfreezing in a refrigerator at 4° C. when used. Take 20 μL of the blank plasma, adding 20 μL of the target compound solution as above formulated, vortexing for 15 s, and left it in the water bath at 37° C. […] Take the supernatant and inject 10 μL for detection.

[3] = test system: mice embryonic fibroblast (NIH3t3); assay: Cytotoxicity, MTS method, NIH3T3 cell; format: cell-based; settings: Mus musculus, NIH3T3, MTS method; read-out: IC50(mM) NIH3T3 cell
Source text: as §1

[4] = test system: immortalized mice bone marrowmacrophages (IBMM); assay: Cytotoxicity, MTS method, IBMM cell; format: cell-based; settings: Mus musculus, Bone marrow macrophage, MTS method; read-out: IC50(mM) IBMM cell
Source text: as §1

In the case of `COc1ccc(OC(=O)c2ccccc2)c(C(C)(C)C)c1` [XH2005, 2-tert-butyl-4-methoxyphenol benzoate], the IC50 [1] was 0.082 mM, the “release of BHA in human plasma” value [2] was “releases BHA” and the IC50 [3] was 0.0875 mM. The IC50 [4] was 0.439 mM.
With `COc1ccc(OC(=O)C2=CCCCC2)c(C(C)(C)C)c1` [XH2015, 2-tert-butyl-4-methoxyphenol cyclohexenecarboxylate] the IC50 [1] was 0.109 mM, the “release of BHA in human plasma” value [2] was “releases BHA” and the IC50 [3] was 0.194 mM. It also gave an IC50 [4] of 0.147 mM.
`CCC(=O)Oc1ccc(OC)cc1C(C)(C)C` [XH2016, 2-tert-butyl-4-methoxyphenol propionate] showed an IC50 [1] of 0.065 mM, an IC50 [3] of 0.0186 mM and an IC50 [4] of 0.148 mM.
Compound `C=CC(=O)Oc1ccc(OC)cc1C(C)(C)C` [XH2017, 2-tert-butyl-4-methoxyphenol acrylate] has an IC50 [1] of 0.008 mM, an IC50 [3] of 0.0229 mM and an IC50 [4] of 0.56 mM.
In the case of `COc1ccc(OC(=O)Cc2ccc(OC)c(OC)c2)c(C(C)(C)C)c1` [XH2018, (2-tert-butyl-4-methoxyphenol) 3,4-dimethoxyphenylacetate], the IC50 [1] was 0.386 mM, the “release of BHA in human plasma” value [2] was “releases BHA” and the IC50 [3] was 0.333 mM. For the same compound, the IC50 [4] was 0.13 mM.
In the case of `CC#CC(=O)Oc1ccc(OC)cc1C(C)(C)C` [XH2019, 2-tert-butyl-4-methoxyphenol butynoate], the IC50 [1] was 0.037 mM, the “release of BHA in human plasma” value [2] was “releases BHA” and the IC50 [3] was 0.0476 mM. For the same compound, the IC50 [4] was 0.024 mM.
With `COc1ccc(OC(=O)c2ccccc2-c2ccccc2C(=O)Oc2ccc(OC)cc2C(C)(C)C)c(C(C)(C)C)c1` [XH2020, bis(2-tert-butyl-4-methoxyphenol)2,2′-biphenyldicarboxylate] the “release of BHA in human plasma” value [2] was “releases BHA”.
With `COc1ccc(OC(=O)Cc2cccc(F)c2)c(C(C)(C)C)c1` [XH2022, (2-tert-butyl-4-methoxyphenol) 3-fluorophenylacetate] the “release of BHA in human plasma” value [2] was “releases BHA”.
In the case of `COc1ccc(OC(=O)Cc2c[nH]c3ccccc23)c(C(C)(C)C)c1` [XH2023, (2-tert-butyl-4-methoxyphenol) (1H-indole-3-yl)acetate], the IC50 [1] was 0.03 mM, the “release of BHA in human plasma” value [2] was “releases BHA” and the IC50 [3] was 0.065 mM. The IC50 [4] was 0.0065 mM.
For `COc1ccc(OC(=O)CCc2ccc(F)cc2)c(C(C)(C)C)c1` [XH2024, (2-tert-butyl-4-methoxyphenol) 3-(4-fluorophenyl)-propionate], the “release of BHA in human plasma” value [2] was “releases BHA”.
For `COc1ccc(OC(=O)C2CCCN(C(=O)OC(C)(C)C)C2)c(C(C)(C)C)c1` (centres unmarked) [XH2025, (2-tert-butyl-4-methoxyphenol) N-tert-butoxycarbonylpiperidine-3-formate], the “release of BHA in human plasma” value [2] was “releases BHA”.
In the case of `COc1ccc(OC(=O)CCc2cccc([N+](=O)[O-])c2)c(C(C)(C)C)c1` [XH2028, (2-tert-butyl-4-methoxyphenol) 3-(3-nitrophenyl)propionate], the “release of BHA in human plasma” value [2] was “releases BHA”.
For `COc1ccc(OC(=O)c2ccc(-c3ccccc3)cc2)c(C(C)(C)C)c1` [XH2029, (2-tert-butyl-4-methoxyphenol) 4-phenylbenzoate], the “release of BHA in human plasma” value [2] was “releases BHA”.
In the case of `COc1ccc(OC(=O)c2cnccc2C)c(C(C)(C)C)c1` [XH2030, (2-tert-butyl-4-methoxyphenol) 4-methylpyridine-3-formate], the “release of BHA in human plasma” value [2] was “releases BHA”.
For `COc1ccc(OC(=O)c2cnccc2OC)c(C(C)(C)C)c1` [XH2031, (2-tert-butyl-4-methoxyphenol) 4-methoxypyridine-3-formate], the “release of BHA in human plasma” value [2] was “releases BHA”.
For `CCCCCCCCCCCCCCCC(=O)Oc1ccc(OC)cc1C(C)(C)C` [XH2033, 2-tert-butyl-4-methoxyphenol hexadecylate], the “release of BHA in human plasma” value [2] was “releases BHA”.
For `COc1ccc(OC(=O)CNC(=O)OC(C)(C)C)c(C(C)(C)C)c1` [XH2034, N-tert-butoxycarbonylglycine(2-tert-butyl-4-methoxyphenol)ester], the “release of BHA in human plasma” value [2] was “releases BHA”.
In the case of `COc1ccc(OC(=O)c2ccc(Cl)c(F)c2)c(C(C)(C)C)c1` [XH2035, (2-tert-butyl-4-methoxyphenol) 3-fluoro-4-chlorobenzoate], the “release of BHA in human plasma” value [2] was “releases BHA”.
With `COc1ccc(OC(=O)c2cccc(C#N)c2)c(C(C)(C)C)c1` [XH2036-2, (2-tert-butyl-4-methoxyphenol) 3-cyanobenzoate] the “release of BHA in human plasma” value [2] was “releases BHA”.
With `COc1ccc(OC(=O)c2ccc3ccccc3c2)c(C(C)(C)C)c1` [XH2036-4, (2-tert-butyl-4-methoxyphenol) 2-naphthoate] the IC50 [1] was 0.253 mM, the “release of BHA in human plasma” value [2] was “releases BHA” and the IC50 [3] was 0.232 mM. For the same compound, the IC50 [4] was 0.23 mM.
With `COc1ccc(OC(=O)c2cc(Cl)nnc2Cl)c(C(C)(C)C)c1` [XH2038-1, (2-tert-butyl-4-methoxyphenol) 3,6-dichloropyridazine-4-formate] the IC50 [1] was 0.33 mM, the IC50 [3] was 0.236 mM and the IC50 [4] was 0.222 mM.
In the case of `COc1ccc(OC(=O)c2cc3ccccc3[nH]2)c(C(C)(C)C)c1` [XH2038-3, (2-tert-butyl-4-methoxyphenol) 2-indoleformate], the IC50 [1] was 0.205 mM, the “release of BHA in human plasma” value [2] was “releases BHA” and the IC50 [3] was 0.517 mM. The IC50 [4] was 0.263 mM.
In the case of `COc1ccc(OC(=O)c2cccnc2Cl)c(C(C)(C)C)c1` [XH2038-4, (2-tert-butyl-4-methoxyphenol) 2-chloro-3-picolinate], the “release of BHA in human plasma” value [2] was “releases BHA”.
In the case of `COc1ccc(OC(=O)Cc2cccs2)c(C(C)(C)C)c1` [XH2038-5, (2-tert-butyl-4-methoxyphenol) 2-thiopheneacetate], the IC50 [1] was 0.266 mM, the “release of BHA in human plasma” value [2] was “releases BHA” and the IC50 [3] was 0.146 mM. The IC50 [4] was 0.202 mM.
For `COc1ccc(OC(=O)CCc2ccc(C)cc2)c(C(C)(C)C)c1` [XH2039-1, (2-tert-butyl-4-methoxyphenol) 3-(4-methylphenyl)-propionate], the “release of BHA in human plasma” value [2] was “releases BHA”.
For `C#CC(=O)Oc1ccc(OC)cc1C(C)(C)C` [XH2039-2, (2-tert-butyl-4-methoxyphenol) propiolate], the IC50 [1] was 0.125 mM, the “release of BHA in human plasma” value [2] was “releases BHA” and the IC50 [3] was 0.248 mM. The IC50 [4] was 0.159 mM.
In the case of `COc1ccc(OC(=O)C(C)c2ccccc2)c(C(C)(C)C)c1` (centres unmarked) [XH2039-3, (2-tert-butyl-4-methoxyphenol) 2-phenyl propionate], the “release of BHA in human plasma” value [2] was “releases BHA”.
In the case of `COc1ccc(OC(=O)C(C)F)c(C(C)(C)C)c1` (centres unmarked) [XH2039-4, (2-tert-butyl-4-methoxyphenol) 2-fluoropropionate], the “release of BHA in human plasma” value [2] was “releases BHA”.
With `COc1ccc(OC(=O)CC2CCCCC2)c(C(C)(C)C)c1` [XH2039-5, (2-tert-butyl-4-methoxyphenol) cyclohexylacetate] the IC50 [1] was 0.087 mM, the “release of BHA in human plasma” value [2] was “releases BHA” and the IC50 [3] was 0.106 mM. It also gave an IC50 [4] of 0.067 mM.
With `COc1ccc(OC(=O)CC23CC4CC(CC(C4)C2)C3)c(C(C)(C)C)c1` [XH2040-1, (2-tert-butyl-4-methoxyphenol) adamantaneacetate] the “release of BHA in human plasma” value [2] was “releases BHA”.
For `COc1ccc(OC(=O)CCCCCC(C)=O)c(C(C)(C)C)c1` [XH2040-5, (2-tert-butyl-4-methoxyphenol) 7-oxooctanoate], the “release of BHA in human plasma” value [2] was “releases BHA”.
For `COc1ccc(OC(=O)c2cc(I)ccc2Br)c(C(C)(C)C)c1` [XH2041-3, (2-tert-butyl-4-methoxyphenol) 2-bromo-5-iodo benzoate], the “release of BHA in human plasma” value [2] was “releases BHA”.
With `COc1ccc(OC(=O)c2ccc([N+](=O)[O-])cc2F)c(C(C)(C)C)c1` [XH2041-4, (2-tert-butyl-4-methoxyphenol) 2-fluoro-4-nitryl benzoate] the “release of BHA in human plasma” value [2] was “releases BHA”.
For `COc1ccc(OC(=O)C2CCCN(C(=O)OC(C)(C)C)C2)c(C(C)(C)C)c1` (centres unmarked) [XH2041-5, (2-tert-butyl-4-methoxyphenol) N-tert-butoxycarbonylpiperidine-3-formate], the “release of BHA in human plasma” value [2] was “releases BHA”.
In the case of `COc1ccc(OC(=O)CCCC(=O)c2ccccc2)c(C(C)(C)C)c1` [XH2043-1, (2-tert-butyl-4-methoxyphenol) 4-benzoyl butyrate], the “release of BHA in human plasma” value [2] was “releases BHA”.
For `COc1cc(C=CC(=O)Oc2ccc(OC)cc2C(C)(C)C)cc(OC)c1` [XH2043-2, (2-tert-butyl-4-methoxyphenol) 3,5-dimethoxy phenylacrylate], the “release of BHA in human plasma” value [2] was “releases BHA”.
With `COc1ccc(OC(=O)c2cc(Cl)ccn2)c(C(C)(C)C)c1` [XH2043-3, (2-tert-butyl-4-methoxyphenol) 4-chloropyridine-2-formate] the “release of BHA in human plasma” value [2] was “releases BHA”.
For `COc1ccc(OC(=O)C2CCCN(C)C2)c(C(C)(C)C)c1` (centres unmarked) [XH2043-4, (2-tert-butyl-4-methoxyphenol) N-methylpiperidine-3-formate], the “release of BHA in human plasma” value [2] was “releases BHA”.
For `COc1ccc(OC(=O)CCc2cc(C(C)(C)C)c(O)c(C(C)(C)C)c2)c(C(C)(C)C)c1` [XH2045-2, (2-tert-butyl-4-methoxyphenol) 3-(3,5-di-tert-butyl-4-hydroxy-phenyl)propionate], the “release of BHA in human plasma” value [2] was “releases BHA”.
For “(2-tert-butyl-4-methoxyphenol) 1-methylcyclopropyl formate [XH2038-2]”, the “release of BHA in human plasma” value [2] was “releases BHA”.
For “di(2-tert-butyl-4-methoxyphenol) adipate [XH2046-3]”, the “release of BHA in human plasma” value [2] was “releases BHA”.
For “di(2-tert-butyl-4-methoxyphenol) malonate [XH2037]”, the “release of BHA in human plasma” value [2] was “releases BHA”.
For “di(2-tert-butyl-4-methoxyphenol) p-phenylenediacetate [XH2042]”, the “release of BHA in human plasma” value [2] was “releases BHA”.
For “di(2-tert-butyl-4-methoxyphenol) terephthalate [XH2026]”, the “release of BHA in human plasma” value [2] was “releases BHA”.
